This note sets out measurements from ChEMBL document CHEMBL3734721 (J Med Chem, 2015).

pEC50, pIC50: −log10 of the molar value. A value given as a limit tells only on which side of the number the result lay.

The target of series [1] is T1, Alpha-2A adrenergic receptor (Homo sapiens, UniProt P08913).
T1 sequence (P08913 whole entry): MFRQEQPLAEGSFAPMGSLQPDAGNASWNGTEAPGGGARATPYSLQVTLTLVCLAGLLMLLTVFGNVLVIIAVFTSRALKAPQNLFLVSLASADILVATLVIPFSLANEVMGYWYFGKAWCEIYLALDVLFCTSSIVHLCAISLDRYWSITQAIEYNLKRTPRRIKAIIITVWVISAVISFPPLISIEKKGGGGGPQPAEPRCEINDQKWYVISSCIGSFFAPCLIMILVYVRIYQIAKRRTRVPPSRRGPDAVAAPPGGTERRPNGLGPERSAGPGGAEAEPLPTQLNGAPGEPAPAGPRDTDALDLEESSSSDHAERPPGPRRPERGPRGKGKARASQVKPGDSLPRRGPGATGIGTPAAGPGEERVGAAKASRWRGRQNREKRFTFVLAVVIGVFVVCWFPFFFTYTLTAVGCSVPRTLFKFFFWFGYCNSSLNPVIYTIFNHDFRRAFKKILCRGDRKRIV
Description: Agonist activity at human wild-type alpha 2A receptor expressed in CHO-K1 cells assessed as cAMP level by HTRF assay. It is filed as functional, cell-based. (Changes in cAMP serve as a functional read-out for many G protein-coupled receptors.)

The target in series [2] is T2, 5-hydroxytryptamine receptor 2C (Homo sapiens, UniProt P28335).
T2 sequence (P28335 whole entry): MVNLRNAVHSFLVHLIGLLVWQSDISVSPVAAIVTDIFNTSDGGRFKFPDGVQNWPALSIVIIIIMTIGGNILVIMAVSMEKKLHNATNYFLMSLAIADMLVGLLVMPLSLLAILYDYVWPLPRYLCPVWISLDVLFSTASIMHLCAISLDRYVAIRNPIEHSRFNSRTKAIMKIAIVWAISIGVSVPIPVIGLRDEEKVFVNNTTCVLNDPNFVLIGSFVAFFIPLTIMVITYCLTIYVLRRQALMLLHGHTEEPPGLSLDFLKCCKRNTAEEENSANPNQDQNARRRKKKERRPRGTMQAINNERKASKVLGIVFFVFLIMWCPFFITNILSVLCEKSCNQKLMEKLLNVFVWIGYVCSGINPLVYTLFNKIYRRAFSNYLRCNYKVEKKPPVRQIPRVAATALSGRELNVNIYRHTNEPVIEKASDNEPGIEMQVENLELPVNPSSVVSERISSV
Put plainly: Agonist activity at human 5-HT2C receptor expressed in CHO-K1 cells assessed as calcium level by FDSS assay. It is filed as functional, cell-based.

The nature of series [3]: Chemical stability of compound in 0.1N NaOH assessed as compound remaining at 10 mg/ml after 2 days. The class given is physicochemical. The following applies: read-out: Stability.
Series [4] addresses T2, 5-hydroxytryptamine receptor 2C. Put plainly: Antagonist activity at human 5-HT2C receptor expressed in CHO-K1 cells assessed as seretonin-induced calcium level by FDSS assay. The class given is functional, cell-based.
The target of series [5] is T3, Muscarinic acetylcholine receptor M1 (Homo sapiens, UniProt P11229).
T3 sequence (P11229 whole entry): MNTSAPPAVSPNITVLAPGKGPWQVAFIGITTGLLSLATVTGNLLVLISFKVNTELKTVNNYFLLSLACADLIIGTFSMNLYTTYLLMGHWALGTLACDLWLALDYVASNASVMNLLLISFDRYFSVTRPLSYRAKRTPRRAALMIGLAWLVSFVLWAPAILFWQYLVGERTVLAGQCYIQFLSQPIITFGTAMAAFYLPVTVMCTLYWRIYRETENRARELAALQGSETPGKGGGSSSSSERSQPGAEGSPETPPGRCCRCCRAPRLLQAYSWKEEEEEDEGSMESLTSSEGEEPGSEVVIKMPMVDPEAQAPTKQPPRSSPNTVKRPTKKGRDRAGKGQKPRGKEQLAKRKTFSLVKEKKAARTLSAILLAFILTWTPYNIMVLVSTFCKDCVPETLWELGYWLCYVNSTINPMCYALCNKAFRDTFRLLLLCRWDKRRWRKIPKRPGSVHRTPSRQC
Description: Antagonist activity at human wild-type M1 receptor expressed in CHO-K1 cells assessed as acetylcholine-induced calcium by FDSS assay. It is filed as functional, cell-based.

The target of series [6] is T4, Adenosine receptor A3 (Homo sapiens, UniProt P0DMS8).
T4 sequence (P0DMS8 whole entry): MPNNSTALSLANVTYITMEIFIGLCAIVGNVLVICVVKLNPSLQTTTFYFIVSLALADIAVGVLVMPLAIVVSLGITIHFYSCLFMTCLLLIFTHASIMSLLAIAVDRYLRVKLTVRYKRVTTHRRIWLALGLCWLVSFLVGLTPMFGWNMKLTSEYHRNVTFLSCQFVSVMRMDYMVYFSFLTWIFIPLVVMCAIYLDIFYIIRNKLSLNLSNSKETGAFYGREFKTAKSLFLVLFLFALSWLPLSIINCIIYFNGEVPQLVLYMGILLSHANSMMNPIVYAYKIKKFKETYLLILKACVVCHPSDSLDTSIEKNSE
Description: Agonist activity at human wild-type A3 receptor expressed in CHO-K1 cells assessed as cAMP level by HTRF assay. The class given is functional, cell-based.

The target in series [7] is T5, Muscarinic acetylcholine receptor M3 (Homo sapiens, UniProt P20309). Description: Antagonist activity at human wild-type M3 receptor expressed in CHO-K1 cells assessed as acetylcholine-induced calcium by FDSS assay. It is filed as functional, cell-based.
The target of series [8] is T6, Cytochrome P450 2C8 (Homo sapiens, UniProt P10632).
T6 sequence (P10632 whole entry): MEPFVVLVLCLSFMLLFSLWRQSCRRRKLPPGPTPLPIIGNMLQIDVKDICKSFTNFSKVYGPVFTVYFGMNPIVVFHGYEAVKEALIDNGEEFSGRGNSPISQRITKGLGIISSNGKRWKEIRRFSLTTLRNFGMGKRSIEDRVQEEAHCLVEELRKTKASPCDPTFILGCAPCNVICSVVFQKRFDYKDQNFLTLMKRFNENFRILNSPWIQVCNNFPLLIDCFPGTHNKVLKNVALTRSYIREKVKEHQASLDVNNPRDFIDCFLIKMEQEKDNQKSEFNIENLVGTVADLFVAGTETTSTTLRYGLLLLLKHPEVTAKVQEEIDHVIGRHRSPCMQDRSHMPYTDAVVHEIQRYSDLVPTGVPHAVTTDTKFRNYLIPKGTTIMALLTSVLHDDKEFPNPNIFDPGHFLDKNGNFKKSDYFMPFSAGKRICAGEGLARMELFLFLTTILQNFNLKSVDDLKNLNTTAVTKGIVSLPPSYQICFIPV
Put plainly: Inhibition of human CYP2C8 by LC-MS analysis. It is filed as ADME.

The target of series [9] is T3, Muscarinic acetylcholine receptor M1. Description: Agonist activity at human wild-type M1 receptor expressed in CHO-K1 cells assessed as calcium level by FDSS assay. The class given is functional, cell-based.
Series [10] deals with T1, Alpha-2A adrenergic receptor. Description: Antagonist activity at human wild-type alpha 2A receptor expressed in CHO-K1 cells assessed as epinephrine-induced cAMP by HTRF assay. The class given is functional, cell-based. In general terms: Time-resolved FRET reads energy transfer from a long-lived donor to a nearby acceptor.
For series [11], the system named is Liver microsome. Description: Metabolic stability in human liver microsomes assessed as CN adduct formation at 40 uM for 1 hr by LC/MS analysis. The class given is ADME. A general note: Liver microsomes are vesicles of endoplasmic reticulum, rich in cytochrome P450 enzymes.
Series [12] can be described thus: Cmax in Swiss mouse brain at 5 mg/kg, sc. On the set-up: dose 5 mg/kg, route subcutaneous. The class given is ADME, organism-based.
For series [13], the target named is 5-hydroxytryptamine receptor 7 (Homo sapiens, UniProt P34969). Put plainly: Agonist activity at human wild-type 5-HT7 receptor expressed in HEK cells assessed as cAMP by HTRF assay. It is filed as functional, cell-based, HEK293.
Series [14] addresses T5, Muscarinic acetylcholine receptor M3. Description: Agonist activity at human wild-type M3 receptor expressed in CHO-K1 cells assessed as calcium level by FDSS assay. It is filed as functional, cell-based.

T5 sequence (P20309 whole entry): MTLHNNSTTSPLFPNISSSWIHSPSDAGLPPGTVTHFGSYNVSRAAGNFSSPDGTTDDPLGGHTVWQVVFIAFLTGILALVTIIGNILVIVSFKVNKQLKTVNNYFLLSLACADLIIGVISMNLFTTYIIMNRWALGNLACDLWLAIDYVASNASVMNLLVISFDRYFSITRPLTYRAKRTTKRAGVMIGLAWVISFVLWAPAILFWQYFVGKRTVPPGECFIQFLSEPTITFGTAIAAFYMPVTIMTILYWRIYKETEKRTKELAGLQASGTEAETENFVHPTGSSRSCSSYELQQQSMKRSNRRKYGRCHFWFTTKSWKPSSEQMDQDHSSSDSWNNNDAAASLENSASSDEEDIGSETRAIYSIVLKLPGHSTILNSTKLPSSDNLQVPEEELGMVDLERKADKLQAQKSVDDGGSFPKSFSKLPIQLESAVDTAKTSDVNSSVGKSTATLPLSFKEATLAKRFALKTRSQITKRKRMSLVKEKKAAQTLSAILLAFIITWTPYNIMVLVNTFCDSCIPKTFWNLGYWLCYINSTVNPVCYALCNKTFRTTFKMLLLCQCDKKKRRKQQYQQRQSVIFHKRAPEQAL
Sequence of 5-hydroxytryptamine receptor 7 (P34969 whole entry): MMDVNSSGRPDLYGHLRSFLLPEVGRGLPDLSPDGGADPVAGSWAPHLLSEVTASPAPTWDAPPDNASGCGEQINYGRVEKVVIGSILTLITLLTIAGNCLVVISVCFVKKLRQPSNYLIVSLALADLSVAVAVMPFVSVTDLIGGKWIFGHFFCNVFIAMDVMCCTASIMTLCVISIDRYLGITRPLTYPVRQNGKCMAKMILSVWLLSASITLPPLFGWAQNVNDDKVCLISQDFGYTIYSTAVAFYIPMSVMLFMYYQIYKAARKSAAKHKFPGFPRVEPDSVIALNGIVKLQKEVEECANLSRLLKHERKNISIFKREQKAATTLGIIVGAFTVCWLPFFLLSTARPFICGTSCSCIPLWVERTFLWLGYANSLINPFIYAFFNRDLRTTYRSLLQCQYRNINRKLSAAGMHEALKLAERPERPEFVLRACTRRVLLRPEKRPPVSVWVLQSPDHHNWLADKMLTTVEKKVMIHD

Turning to `CB1C=Cc2cccc(OCC(O)CNC(C)C)c2N1` (stereo not drawn), the pEC50 in series [1], in [2], in [6], in series [9], in series [13] and in series [14] was < 5.30 in each case. Moreover, the remaining at 48 h, 10 mg/ml in [3] amounted to 82%. Besides, the negative-log IC50 (pIC50) (commonly the IC50 on a negative log10 scale, so that one unit is a factor of ten) is < 5.30 in series [4]; < 5.30 in [5]; < 5.30 in series [7]; < 5.00 in series [8]; < 5.30 in [10]. Further, in series [11], the Stability result is “Stable”. The concentration in [12] peaked (Cmax) at 7 µM.

Turning to `CB1C=Cc2c(cccc2OCC(O)CN(C)C)N1` (stereo not drawn), the pEC50 in [1], in series [2], in series [6], in series [9], in series [13] and in series [14] was < 5.30 each time. Besides, the remaining at 48 h, 10 mg/ml in [3] was 83%. In addition, the pIC50 was < 5.30 in series [4]; < 5.30 in series [5]; < 5.30 in series [7]; < 5.00 in series [8]; < 5.30 in series [10]. Further, the Stability result in series [11] was “Stable”. Also, in [12], the Cmax – broadly, the peak of the concentration-time curve – amounted to 62 µM.
